Patent US20170172450A1, “SYSTEM AND METHODS FOR QUANTITATIVELY DESCRIBING BIOPHYSICAL MARKERS” (STC.UNM, priority 2014, published 2017)

Legend:
[1] = breast tumors of patients; cited from earlier work
[2] = Toxicity monitoring in clinical trial of intraoperative gemcitabine infusion; assay type: in vivo, human
Protocol: Pancreatic resection was performed using standard techniques and major surgical complications were defined as previously described. […] Serum samples were collected at regular intervals during the operation to determine gemcitabine pharmacokinetics. The MD Anderson Data and Safety Monitoring Board oversaw the study. Drug toxicities were evaluated according to Common Terminology Criteria for Adverse Events version 3.0. Daily postoperative labs including absolute neutrophil counts (ANC) and platelet counts were drawn. Patients received full supportive care and the use of growth factors was permitted for myelosuppression (ANC<0.5×10^9). There were 3 patients with grade III neutropenia or leukopenia, and 3 patients with grade II neutropenia. All cytopenias were transient with nadir at approximately postoperative day 6.

[3] = dose of 300 mg/m^2; cited from earlier work
[4] = Gemcitabine incorporation into DNA of cells in pancreatic tumor and normal pancreas (punch biopsies, Advion assay); assay type: in vivo, human
Protocol: Pancreatic resection was performed using standard techniques and major surgical complications were defined as previously described. Gemcitabine was administered intravenously at 500 mg/m^2 for the first 2 patients (per IRB safety recommendations) and then subsequently at 1000 mg/m^2 with an infusion pump at a fixed dose rate of 10 mg/m^2/min (over 50 min and 100 min respectively) and was delivered at the start of operation and concluded prior to specimen removal. Serum samples were collected at regular intervals during the operation to determine gemcitabine pharmacokinetics.
Immediately after specimen collection, tumors were bivalved by a surgical pathologist and 4.0 mm punch biopsies were taken from the outer and inner portions of the tumors (median 4 samples per tumor) as well from as the normal pancreas. The punch biopsies were sent for quantitative analysis of the gemcitabine metabolite incorporation into the DNA of the cells within the pancreatic tumor (i.e., cancer and stromal cells) and normal pancreas (Advion BioServices, Ithaca, N.Y.). […]
The pancreatectomy specimens were evaluated by a pathologist. […] The locations of the tumor biopsy samples that were used to quantify gemcitabine incorporation were recorded as either inner or outer tumor. […] These specimens were then processed as previously described for quantitative analysis of gemcitabine DNA incorporation (Advion Biosciences). […]

[5] = 12 PDAC patients, IV 500 or 1000 mg/m^2 at 10 mg/m^2/min during resection, CTCAE version 3.0

Row | Compound | intra-tumoral heterogeneity in delivery [1] | thrombocytopenia ([2]; 12 PDAC patients, intraoperative IV infusion) | patients with grade II neutropenia [2, 5] [patients] | patients with grade III neutropenia or leukopenia [2, 5] [patients] | nadir of cytopenias ([2]; all cytopenias transient) [postoperative day] | infectious complications ([2]; whole cohort) | differences in gemcitabine incorporation into the primary tumors [3] | gemcitabine incorporation in the tumors relative to normal pancreas ([4]; 12 patients with localized primary PDAC) | drug delivery to tumor ([4]; intraoperative gemcitabine infusion trial)
1 | COc1cccc2c1C(=O)c1c(O)c3c(c(O)c1C2=O)C[C@@](O)(C(=O)CO)C[C@@H]3O[C@H]1C[C@H](N)[C@H](O)[C@H](C)O1 [doxorubicin] | some parts of the tumor not receiving any drug |  |  |  |  |  |  |  | 
2 | Nc1ccn([C@@H]2O[C@H](CO)[C@@H](O)C2(F)F)c(=O)n1 [gemcitabine] |  | No significant thrombocytopenia | 3 | 3 | ~6 | no infectious complications | up to 5 fold | ranged from sub- to supra-normal pancreas levels | measureable drug delivery in all patients
